Source: US10098899B2, “Drug with activity against the herpes virus family” (priority 2010, dated 2018)

Legend:
[1] = tested on: type I herpes simplex virus (strain EC); test: Herpetic pneumonia in white mice: virus titer in lungs (titration on Vero cells); assay type: in vivo, white non-pedigree mice; conditions: for Virus titer in lungs of mice on day 3 after the infection: day 3 after infection, 50 mg/kg intragastrically, 24 h and 1 h prior to and 24 h and 48 h after infection
Protocol: Antiviral activity of the inventive substance was determined using the model of pneumonia in white mice caused by type I herpes simplex virus.
Herpes simplex virus of type I (strain EC) was accumulated in Vero cells cultured in MEM medium with the addition of 0.2% bovine serum, 50 μg/ml of gentamicin. Virus titration was performed on Vero cells cultured in 96-well plates. Results were recorded after a pronounced cytopathic effect (CPE) appeared in virus control. The degree of intactness of the cellular monolayer was assessed visually, virus titer was calculated as the reciprocal value of Briggs logarithm of the largest dilution of the source material that is still able to produce visually notable manifestations of CPE in the cell culture (CTD50).
For assessing the virus inhibiting action of the preparations, white non-pedigree mice weighing 12-15 g (“Rappolovo” farm, Leningrad Region) were infected intranasally under a light ether anaesthesia with the herpes simplex virus in the dosage of 106 (CTD50)/0.05 ml. The preparation under study was administered intragastrically in the dosage of 50 mg/kg of weight according to a medical-preventive scheme (24 h and 1 h prior to infection, and 24 h and 48 h after the animals were infected). On day 3 the lungs of the infected animals were removed, homogenized in the presence of 10-fold volume of phosphate buffer and then 10-fold dilutions from 10-1 to 10-6 were prepared thereof. Dilutions of the lungs homogenate were used for infecting the intact culture of Vero cells and for titration of virus progeny. Positive reference was represented by lungs of mice that instead of the studied preparation received physiological solution by intragastric administration, whereas negative reference was represented by lungs of mice that received aciclovir in the dosage of 50 mg/kg of weight according to the same scheme. Each experimental group consisted of 10 animals.

[2] = tested on: Herpes virus of type II; test: Antiviral activity in Vero cells, unaltered cells, herpes virus of type II; assay type: cell-based; conditions: for Number (%) of unaltered cells, percent / Number of unaltered cells: Herpes virus of type II, Vero cells, 50 mg/1 of preparation; for Number of unaltered cells: non-infected reference 10000
Protocol: (§1) Determining Activity Against Herpes Viruses of Type 1 and 11.
(§2) Herpes simplex virus (strain EC) was grown in Vero cells cultured in MEM medium with the addition of 0.2% bovine serum and 50 mg/1 of the preparations under study.

[3] = tested on: Herpes virus of type I; test: Antiviral activity in Vero cells, unaltered cells, herpes virus of type I; assay type: cell-based; conditions: 50 mg/1 of preparation; for Number of unaltered cells: non-infected reference 10000
Protocol: as §1, §2

[4] = tested on: type I herpes simplex virus (strain EC); test: Herpetic pneumonia in white mice: histologic (morphometric) examination of lungs; assay type: in vivo, white non-pedigree mice

Compound | virus-inhibitory activity at the model of herpetic pneumonia in vivo (in words) ([1]; compared with aciclovir at the same dosage) | Virus titer in lungs of mice on day 3 after the infection [1] [Lg CTD50] | Number (%) of unaltered cells, percent [2] | Number of unaltered cells [2] | antiviral activity compared with aciclovir (in words) ([2]; in particular against the herpes virus of type II) | Number (%) of unaltered cells, percent [3] | Number of unaltered cells [3] | Area of an inflammation focus in section ([4]; term 2 days) | Number of inflammation foci in one animal ([4]; term 2 days) | Area of an inflammation focus in section ([4]; term 4 days) | Number of inflammation foci in one animal ([4]; term 4 days) | Area of an inflammation focus in section ([4]; term 6 days) | Number of inflammation foci in one animal ([4]; term 6 days)
(2,6-dichlorophenyl)amide salt of carbopentoxysulfanilic acid [The inventive substance] | statistically significant virus-inhibitory activity | 1.0 ± 0.11 | (90%) | 9000 | significantly exceeds that of the aciclovir | (80%) | 8000 | 47 ± 7.3 | 3 | 49 ± 12.1 | 2 | 14 ± 5.5 | 1
Nc1nc2c(ncn2COCCO)c(=O)[nH]1 [Aciclovir, 2-amino-1,9-dihydro-9-[(2-hydroxyethoxy)methyl]-6H-purine-6-on, reference compound] | – | 1.4 ± 0.34 | (70%) | 7000 | – | (65%) | 7000 | 55 ± 9.4 | 8 | 58 ± 14.7 | 3 | 24 ± 6.4 | 3
